Key:
Vero cells = assay: Cytotoxicity assay (MTT), Vero cells; assay type: cell-based, African green monkey; conditions: CC50 (Vero) divided by EC50 (S. mansoni)
Protocol: (§1) The selectivity index (SI) of a compound is a widely accepted parameter used to express a drug’s in vitro efficacy. Therefore, the cytotoxic effect of these six pyrazolines (16, 18, 19, 21, 22 and 23) was evaluated using a monkey cell line (Vero) and a human cell line (SH-SY5Y). Cells were incubated with each compound at a range of concentrations for determination of cytotoxic concentrations 50% (CC50). […] With the EC50 data collected for schistosomes as well as the CC50 for animal and human cells, the selectivity indices (SI) were determined for each of the pyrazolines tested (Table 1). […] A SI value ≥ 10 is in accordance with the criteria defined by the WHO for antiparasitic hits, leads, and drug candidates. […] Comparatively, the SI values achieved with pyrazolines exceeded those obtained for other relevant heterocyclic compounds with antischistosomal properties[21],[22]. Although the SI values recorded for pyrazolines were more than 10 times below those for the reference drug praziquantel, a SI value ≥ 10 fulfills and exceeds the criteria established by the WHO for potential compounds as anthelmintic agents. The cytotoxicity of compounds was tested against Vero cells (African green monkey kidney cells obtained from the American Type Culture Collection, ATCC; Manassas, VA, USA) and SH-SY5Y cells (human neuroblastoma obtained from Banco de Células do Rio de Janeiro, BCRJ, RJ, Brazil). Cells was cultured in DMEM medium supplemented with 10% fetal calf serum, penicillin (100 U/mL) and streptomycin (100 µg/mL) and 2 mM of L-glutamine at 37 °C and in a 5% CO2 humidified incubator (Panasonic). The DMEM contained 1 or 4 mg/mL glucose for Vero and SH-SY5Y cells, respectively. Cytotoxicity assay was performed as previously described[25],[26]. Briefly, cells were seeded in 96-well plates (Corning) in DMEM medium and incubated with twofold serial drug starting at 200 μM following a 24 h adhesion period at 37 °C in 5% CO2. After 72 h, MTT was added and incubation was continued for another 3 h. The plate was then read using spectrophotometer (Epoch Microplate Spectrophotometer, BioTek Instruments, Winooski, VT, USA) at 595 nm. The assay was conducted in duplicate and repeated three times. Values were expressed as percentage of the control and 50% cytotoxic concentration (CC50) values were calculated. The selectivity indices (SI) of tested compounds were calculated by dividing CC50 values obtained on mammalian cells with EC50 values determined on S. mansoni.

[1] = Cytotoxicity assay (MTT), Vero cells; assay type: cell-based, African green monkey; conditions: African green monkey, Vero cells (African green monkey kidney cells); Vero cells, 72 h, MTT; brackets = 95% confidence interval
Protocol: as §1

S. mansoni adult worm = assay: In vitro antischistosomal assay (viability of ex vivo adult worms); assay type: cell-based, Schistosoma mansoni; conditions: for Time until all parasites were dead: 50 μM; for Antiparasitic activity in initial screen: 50 µM, after 72 h, adult worms; for EC50: 72 h, ex vivo adult schistosomes, brackets = 95% confidence interval
Protocol: For biological screening, S. mansoni adult parasites were isolated from the mouse infection model (parasite ex vivo) and all compounds were initially screened at 50 µM. The gold-standard antiparasitic compound praziquantel was used as a positive control and DMSO at 0.5% v/v (representing the highest concentration of solvent) served as a negative control. […] For the remaining compounds tested, no EC50 values could be calculated due to lack of activity at 50 μM. […] In tandem, our findings confirm that pyrazolines have a potent antiparasitic activity. Indeed, few compounds in the literature are active at low concentrations for review see[11],[19]. According to criteria established by the World Health Organization (WHO) for antiparasitic hits, leads, and drug candidates, at the start of a screening campaign a compound should inhibit mobility of helminths in vitro at 10 μg/mL[20], commonly ranging from 30 to 40 μM. Thus, the anthelminthic activity of pyrazolines surpasses criteria established by the WHO.
(§2) Adult schistosomes (BH strain) were isolated from infected mice and cultured in RPMI medium + 10% fetal calf serum and 100 U/mL penicillin and 100 μg/mL streptomycin in a 24-well culture plate (Corning, New York, NY, USA) containing one pair of parasites per well at 37 °C and 5% CO2 (Panasonic Healthcare, Sakata, Oizumi-machi, Japan)[38],[39]. For antischistosomal assay, compounds were dissolved in DMSO (final concentration of 0.5% v/v). Each drug concentration was tested at least in triplicate, and the experiments were repeated three times. The initial concentration of the pyrazolines and praziquantel was 50 μM and 3 μM, respectively, which was serially diluted in medium with twofold dilutions to give six concentrations[40],[41]. The negative control worms were assayed in RPMI 1640 medium and RPMI 1640 with 0.5% DMSO. Parasites were monitored daily at 24, 48 and 72 h under a stereomicroscope (Leica Microsystems EZ4E, Wetzlar, Germany) and an inverted microscope (BEL Engineering INV 100, Monza, MB, Italy). Egg production was evaluated daily as previously described. Parasite viability was averaged and 50% effective concentrations (EC50) were calculated using GraphPad Prism software[24],[43].

SH-SY5Y cells = assay: Cytotoxicity assay (MTT), SH-SY5Y cells; assay type: cell-based, human; conditions: CC50 (SH-SY5Y) divided by EC50 (S. mansoni)
Protocol: as §1

[2] = Cytotoxicity assay (MTT), SH-SY5Y cells; assay type: cell-based, human; conditions: human, SH-SY5Y cells (human neuroblastoma); SH-SY5Y cells, 72 h, MTT
Protocol: as §1

[3] = test system: paired adult schistosomes (S. mansoni); assay: Egg production (fecundity) of paired adult schistosomes in vitro; assay type: cell-based, Schistosoma mansoni; conditions: sublethal concentrations (6.25 μM for 16, 12.5 μM for 19 and 23), compared to control
Protocol: Based on antischistosomal properties of pyrazolines 16, 18, 19, 21, 22 and 23, the ability of these six compounds to affect fecundity (egg production) was subsequently measured. […] To further investigate this effect on schistosome fecundity, parasites were tested using sublethal concentrations (3.5 μM for compound 22, 6.25 μM for compound 16, and 12.5 μM for compounds 18, 19, 21, and 23).
as §2

Structure (SMILES) | Monkey cells SI (selectivity index) (Vero cells) | CC50 at 72 h [1] | Death of all worms within 24 h (S. mansoni adult worm; 25 μM, 24 h) | Time until all parasites were dead (S. mansoni adult worm) | Antiparasitic activity in initial screen (S. mansoni adult worm) | EC50 (S. mansoni adult worm; Schistosoma mansoni) | EC50 (S. mansoni adult worm) | Human cells SI (selectivity index) (SH-SY5Y cells) | CC50 at 72 h [2] | Reduction in the number of eggs [3]
CCCCCCCCCOc1ccc(C2CC(c3ccccc3)=NN2C(N)=O)cc1 (stereo not drawn) [Compound 16, 4,5-dihydro-5-(4-(nonyloxy)phenyl)-3-phenylpyrazole-1-carboxamide] | 11.2 | 155 µM | death of all worms | ≤ 24 h | showed antiparasitic activity | < 20 µM | 13.8 µM | > 14.5 | > 200 µM | 30–70%
Cc1ccc(C2CC(c3ccc(F)cc3)=NN2C(N)=O)cc1 (stereo not drawn) [Compound 19, 3-(4-fluorophenyl)-4,5-dihydro-5-p-tolylpyrazole-1-carboxamide] | 9.7 | 169 µM | – | ≤ 24 h | showed antiparasitic activity | < 20 µM | 17.4 µM | > 11.5 | > 200 µM | 30–70%
CCCCCCOc1ccc(C2CC(c3ccccc3)=NN2C(N)=S)cc1 (stereo not drawn) [Compound 23, 4,5-dihydro-5-(4-(hexyloxy)phenyl)-3-phenylpyrazole-1-carbothioamide] | > 7.1 | > 200 µM | – | 72 h | showed antiparasitic activity | 28.2 µM | – | > 7.1 | > 200 µM | 30–70%

— publication PMC8648852, “Pyrazoline derivatives as promising novel antischistosomal agents” (Scientific Reports, 2021)
